Results reported in US8257739B2, “Pharmaceutical compositions of semi-ordered drugs and polymers” (Bend Research, Inc., priority 2002, dated 2012).

Assays:
[1] = In vitro dissolution test of Drug 1 compositions in MFDS solution (concentration enhancement); type: physicochemical; details: for AUC90 / Cmax9O: Drug 1, MFDS pH 6.5, 37° C., first 90 min; for AUC / Drug 1 Concentration: MFDS pH 6.5, 37° C.
Source text: In conducting such a dissolution test, the amount of test composition used is an amount such that if all of the drug dissolved, the drug concentration would be at least 2-fold to 100-fold or more than that of the equilibrium concentration of the drug. The concentration of dissolved drug is typically measured as a function of time by sampling the test medium and plotting drug concentration in the test medium vs. time so that the MDC and/or AUC can be ascertained.
To avoid drug particulates greater than about 0.4 to 1.0 μm in size being present in the solution assayed, which would give an erroneous determination, the test solution is either filtered or centrifuged. “Dissolved drug” is typically taken as that material that either passes a 0.45 μm syringe filter or, alternatively, the material that remains in the supernatant following centrifugation. Filtration can be conducted using a 13 mm, 0.45 μm polyvinylidine difluoride syringe filter sold by Scientific Resources under the trademark TITAN®. Centrifugation is typically carried out in a polypropylene microcentrifuge tube by centrifuging at 13,000 G for 60 seconds. Other similar filtration or centrifugation methods can be employed and useful results obtained. For example, using other types of microfilters may yield values somewhat higher or lower (by about 10-40%) than that obtained with the filter specified above but will still allow identification of preferred compositions. It is recognized that this definition of “dissolved drug” encompasses not only monomeric solvated drug molecules but also a wide range of species such as polymer/drug assemblies that have submicron dimensions such as drug aggregates, aggregates of mixtures of polymer and drug, micelles, polymeric micelles, colloidal particles or nanocrystals, polymer/drug complexes, and other such drug-containing species that are present in the filtrate or supernatant in the specified dissolution test.
For these tests, samples containing 0.72 mg of Example 1B, 0.36 mg of either Control 1C or 1D, or 0.72 mg of Control 1E were separately added to microcentrifuge tubes. The tubes were placed in a 37° C. temperature-controlled chamber, and 1.8 mL MFDS solution at pH 6.5 was added. The contents of the tubes were quickly mixed using a vortex mixer for about 60 seconds. The tubes were then centrifuged at 13,000 G at 37° C. for 1 minute. The supernatant was sampled and diluted 1:6 (by volume) with methanol and then analyzed by high-performance liquid chromatography (HPLC). Drug 1 was analyzed by HPLC using a Waters Symmetry C18 column. The mobile phase consisted of 0.3 vol % glacial acetic acid, 0.2 vol % triethylamine in HPLC water/acetonitrile in a volume ratio of 50/50. Drug concentration was calculated by comparing UV absorbance at 260 nm to the absorbance of Drug 1 standards.
The contents of the tubes were then again mixed on the vortex mixer and allowed to stand undisturbed at 37° C. until the next sample was taken. Samples of the tubes were collected at 4, 10, 20, 40, 90, and 1200 minutes.

[2] = In vivo test of Drug 1 compositions, oral powder for constitution, plasma Drug 1; details: male beagle dogs, oral gavage, 10 mgA/kg Drug 1, plasma
Protocol: The composition of Example 1B was used as an oral powder for constitution (OPC) for evaluating the performance of the composition in in vivo tests using male beagle dogs. The OPC was dosed as a suspension in a solution containing 0.5 wt % Methocel® (Dow Chemical Co.), and was prepared as follows. First, 5.0130 g of Methocel® was weighed out and added slowly to approximately 200 ml of water at 60° C. to form a Methocel® suspension. After all the Methocel® was added, the suspension was placed in a beaker of ice water. Next, 800 ml of chilled water was added with stirring. A 702.7 mg sample of Example 1B was weighed into a mortar. A drop of the Methocel® suspension was added to the mortar and the drug mixture was ground with a pestle. Additional Methocel® suspension was added gradually with grinding until a pourable suspension was obtained. The suspension was then transferred to a vial. The mortar and pestle were washed with the remaining Methocel® suspension. A total of 350 ml of Methocel® suspension was added to the Example 1B sample.
Six male beagle dogs were dosed with samples of Example 1B. Sufficient amounts of the OPC were dosed such that each dog received 10 mgA/kg of Drug 1 (where “A” refers to active drug). The dogs were fed 1 can of liquid diet the day prior to the study. On the day of the study, the dogs were dosed with the OPC using a gavage tube and a syringe. Whole blood samples of 6 ml were taken from the jugular vein using a plasma vacutainer containing sodium heparin with a 20 gauge needle at 0, ½, 1, 2, 3, 4, 6, 8, and 24 hours post dosing. Samples were spun in a refrigerated (5° C.) centrifuge at 3000 rpm for 5 minutes. The resultant plasma samples were poured into 2 ml cryogenic plastic tubes and stored in a freezer (−20° C.) within ½ hour post sampling time. Samples were then analyzed for Drug 1 using an HPLC method.
A similar method was used to dose the dogs with samples of Control 1B, Control 1C, and Control 1D. A washout period of at least 1 week was used between dosing of the various compositions.

[3] = In vitro dissolution test of Drug 2 compositions in MFDS solution (concentration enhancement); type: physicochemical; details: 37° C.; for AUC / Drug 2 Concentration: MFDS
Protocol: The concentration-enhancement provided by Example 2, Control 2B and Control 2C was determined using an in vitro dissolution test as follows. Samples containing 3.91 mg of Example 2, 0.36 mg of Control 2B, or 3.9 mg of Control 2C, were separately added to microcentrifuge tubes. The tubes were placed in a 37° C. temperature-controlled chamber, and 1.8 mL MFDS solution was added. The contents of the tubes were quickly mixed using a vortex mixer for about 60 seconds. The tubes were then centrifuged at 13,000 G at 37° C. for 1 minute. The supernatant was sampled and diluted 1:6 (by volume) with methanol and then analyzed by high-performance liquid chromatography (HPLC). Drug 2 was analyzed by HPLC using a Phenomenex ODS 20 column (250 mm×4.6mm). The mobile phase consisted of 0.02 M KH2PO4 (pH 3)/acetonitrile in a volume ratio of 60/40. Drug concentration was calculated by comparing UV absorbance at 254 nm to the absorbance of Drug 2 standards. The contents of the tubes were then again mixed on the vortex mixer and the next sample was taken. […]

[4] = In vivo test of Drug 2 compositions, gelatin capsule, plasma Drug 2; details: fasted male beagle dogs, one gelatin capsule, 40 mg Drug 2, plasma
Protocol: The composition of Example 2 was placed in a gelatin capsule such that the capsule contained 40 mg of Drug 2. Five fasted male beagle dogs were dosed with one capsule and whole blood samples of 6 ml were taken from the jugular vein using a plasma vacutainer containing sodium heparin with a 20 gauge needle at 0, ½, 1, 1½, 2, 3, 4, 6, 8, 12, and 24 hours post dosing. Samples were spun in a refrigerated (5° C.) centrifuge at 3000 rpm for 5 minutes. Resultant plasma samples were poured into 2 ml cryogenic plastic tubes and were stored in a freezer (−20° C.) within ½ hour post sampling time. Similar tests were performed with a gelatin capsule containing 40 mg of crystalline Drug 2 (Control 2B).

NC(=O)N(O)C1C=C(c2cccc(Oc3ccc(F)cc3)c2)CC1 (single isomer, unassigned; (+)) [Control 1C, (+)-N-{3-[3-(4-fluorophenoxy)phenyl]-2-cyclopenten-1-yl}-N-hydroxyurea]
AUC90 [1]: 2200 µg·min/mL
Cmax9O [1]: 32 µg/mL
AUC ([1]; time 0 min): 0 µg·min/mL
Drug 1 Concentration ([1]; time 0 min): 0 µg/mL
AUC ([1]; time 4 min): 0 µg·min/mL
Drug 1 Concentration ([1]; time 4 min): 9 µg/mL
AUC ([1]; time 10 min): 100 µg·min/mL
Drug 1 Concentration ([1]; time 10 min): 15 µg/mL
AUC ([1]; time 20 min): 300 µg·min/mL
Drug 1 Concentration ([1]; time 20 min): 21 µg/mL
AUC ([1]; time 40 min): 800 µg·min/mL
Drug 1 Concentration ([1]; time 40 min): 27 µg/mL
AUC ([1]; time 90 min): 2,200 min*μg/mL
Drug 1 Concentration ([1]; time 90 min): 32 µg/mL
AUC ([1]; time 1200 min): 43,300 min*μg/mL
Drug 1 Concentration ([1]; time 1200 min): 42 µg/mL
Cmax [2]: 1,650 ng/ml
AUC(0-inf) ([2]; male, beagle, dog, plasma, po, 10 mgA/kg, read-out: AUC(0-inf)): 11.1 µg·h/mL

NC(=O)N(O)C1C=C(c2cccc(Oc3ccc(F)cc3)c2)CC1 (single isomer, unassigned; (+)) [Control 1D, (+)-N-{3-[3-(4-fluorophenoxy)phenyl]-2-cyclopenten-1-yl}-N-hydroxyurea]
AUC90 [1]: 5600 µg·min/mL
Cmax9O [1]: 70 µg/mL
AUC ([1]; time 0 min): 0 µg·min/mL
Drug 1 Concentration ([1]; time 0 min): 0 µg/mL
AUC ([1]; time 4 min): 100 µg·min/mL
Drug 1 Concentration ([1]; time 4 min): 50 µg/mL
AUC ([1]; time 10 min): 400 µg·min/mL
Drug 1 Concentration ([1]; time 10 min): 58 µg/mL
AUC ([1]; time 20 min): 1,000 min*μg/mL
Drug 1 Concentration ([1]; time 20 min): 61 µg/mL
AUC ([1]; time 40 min): 2,300 min*μg/mL
Drug 1 Concentration ([1]; time 40 min): 64 µg/mL
AUC ([1]; time 90 min): 5,600 min*μg/mL
Drug 1 Concentration ([1]; time 90 min): 70 µg/mL
AUC ([1]; time 1200 min): 77,800 min*μg/mL
Drug 1 Concentration ([1]; time 1200 min): 60 µg/mL
AUC(0-inf) [2]: 20,700 ng/ml * hr
Cmax [2]: 3,622 ng/ml

O=C1Cc2cc(CCN3CCN(c4nsc5ccccc45)CC3)c(Cl)cc2N1 [Control 2B]
AUC90 ([3]; Drug 2, MFDS, first 90 min): 1,600 min * μg/mL
Cmax90 ([3]; Drug 2, MFDS, first 90 min): 23 µg/mL
AUC ([3]; time 4 min): 0 µg·min/mL
Drug 2 Concentration ([3]; time 4 min): 14 µg/mL
AUC ([3]; time 10 min): 100 µg·min/mL
Drug 2 Concentration ([3]; time 10 min): 17 µg/mL
AUC ([3]; time 20 min): 300 µg·min/mL
Drug 2 Concentration ([3]; time 20 min): 23 µg/mL
AUC ([3]; time 40 min): 700 µg·min/mL
Drug 2 Concentration ([3]; time 40 min): 19 µg/mL
AUC ([3]; time 90 min): 1,600 min*μg/mL
Drug 2 Concentration ([3]; time 90 min): 15 µg/mL
AUC ([3]; time 1200 min): 14,900 min*μg/mL
Drug 2 Concentration ([3]; time 1200 min): 9 µg/mL
AUC(0-inf) [4]: 1.05 µg·h/mL
Cmax [4]: 0.196 µg/mL
